PMC4977651, “Molecular features of biguanides required for targeting of mitochondrial respiratory complex I and activation of AMP-kinase” (BMC Biology, 2016)
“And” between values parts separate entries of the source, which are not always exact repeats. Identical values can stand only once.

Legend:
[1] = system: 143B cells; assay: Membrane potential measurement by TMRM fluorescence; assay type: cell-based, human
Protocol: 143B cells were seeded at 5 × 10^5 cells per 10 cm^2 well in DMEM containing 10 % FBS. […] The detached cells from each well were incubated in PBS containing 25 pg/mL tetramethylrhodamine, methyl ester (TMRM) and 20 μg/mL Hoescht stain for 20 min at 37 °C then washed twice and re-suspended in 200 μL PBS. TMRM fluorescence was detected using a NucleoCounter® NC 3000 cytometer with excitation at 530 nm and emission at 575 nm, with the Hoescht stain used to check for consistent cell density between samples.

[2] = molecular target: mouse heart mitochondrial membranes (complex I) (Mus musculus, UniProt P03888+P03899+Q91WD5+Q9DC70); assay: NADH:O2 oxidoreduction by mouse heart mitochondrial membranes; assay type: biochemical; conditions: read-out: average % (rate, % of no-inhibitor control)
Protocol: (§1) Complex I and mitochondrial membranes were prepared from Bos taurus (bovine) heart. Intact mitochondria were isolated from rat liver and mouse heart and liver. Membranes were prepared from mouse heart mitochondria by 5 s bursts of sonication at 4 °C and collected by centrifugation (75,000 × g, 1 h).
(§2) Assays were performed at 32 °C in a SpectraMax 96-well plate reader. NADH:decylubiquinone oxidoreduction by complex I at 0.5 μg mL^−1 was measured in 20 mM Tris-HCl (pH 7.2), 0.15 % soy bean asolectin (Avanti Polar Lipids), and 0.15 % 3-((3-cholamidopropyl)dimethylammonium)-1-propanesulfonate (CHAPS, Merck Chemicals Ltd), with 200 μM decylubiquinone and 200 μM NADH, and monitored using ε340–380(NADH) = 4.81 mM^−1 cm^−1 [23]. Catalysis was initiated by addition of NADH and maximal rates determined by linear regression. NADH:O2 oxidoreduction by membranes was measured similarly but using 5 μg mL^−1 membranes in 10 mM Tris-HCl (pH 7.4) and 250 mM sucrose using 200 μM NADH and supplemented with 0.15 mM horse heart cytochrome c (Sigma-Aldrich Ltd.). Succinate:O2 oxidoreduction was measured using 40 μg mL^−1 membranes in 5 mM succinate in 10 mM Tris-HCl (pH 7.4) as described previously. Control experiments included NaCl (to match the ionic strength) or DMSO, as appropriate.
(§3) Experimental values are reported as mean averages ± standard deviation (SD) of technical replicates for large sample sizes and mean averages ± standard error of the mean (SEM) of technical replicates for small sample sizes. Data were analyzed by the unpaired two-tailed Student’s t test. IC50 values were determined using the standard dose-effect relationship (activity (%) = 100 × IC50 / (IC50 + [inhibitor]^m) with the Hill Slope (m) set to unity for purified complex I) and are reported with 95 % confidence intervals.

[3] = molecular target: isolated bovine heart complex I (Bos taurus, UniProt P03887+P03898+P17694+P42026); assay: NADH:decylubiquinone oxidoreduction by isolated complex I; assay type: biochemical; conditions: bovine heart purified mitochondrial complex I, read-out: average % (rate, % of no-inhibitor control)
Protocol: as §1, §2, §3

[4] = molecular target: bovine heart mitochondrial membranes (complex I) (Bos taurus, UniProt P03887+P03898+P17694+P42026); assay: NADH:O2 oxidoreduction by bovine heart mitochondrial membranes (complexes I-III-IV); assay type: biochemical; conditions: bovine heart mitochondrial membranes, read-out: average % (rate, % of no-inhibitor control)
Protocol: as §1, §2, §3

Sequence of isolated bovine heart complex I (P42026 38-216): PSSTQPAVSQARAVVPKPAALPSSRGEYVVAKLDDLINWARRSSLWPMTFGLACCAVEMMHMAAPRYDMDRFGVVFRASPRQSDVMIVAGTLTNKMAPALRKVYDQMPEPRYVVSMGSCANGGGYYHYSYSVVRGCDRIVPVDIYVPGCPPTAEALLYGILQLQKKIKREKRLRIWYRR
Sequence of isolated bovine heart complex I (P17694 34-463): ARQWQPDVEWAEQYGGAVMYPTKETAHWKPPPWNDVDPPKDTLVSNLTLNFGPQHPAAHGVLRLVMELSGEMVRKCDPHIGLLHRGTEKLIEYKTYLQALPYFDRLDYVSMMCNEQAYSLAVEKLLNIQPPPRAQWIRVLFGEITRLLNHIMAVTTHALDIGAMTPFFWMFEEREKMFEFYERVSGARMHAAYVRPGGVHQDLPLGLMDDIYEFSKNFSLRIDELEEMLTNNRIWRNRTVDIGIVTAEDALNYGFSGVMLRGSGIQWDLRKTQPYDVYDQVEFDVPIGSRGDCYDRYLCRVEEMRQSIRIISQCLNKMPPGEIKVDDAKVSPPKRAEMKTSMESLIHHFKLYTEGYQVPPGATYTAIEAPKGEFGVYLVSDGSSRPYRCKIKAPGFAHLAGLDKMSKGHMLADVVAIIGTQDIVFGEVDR
Sequence of isolated bovine heart complex I (P03898 whole entry): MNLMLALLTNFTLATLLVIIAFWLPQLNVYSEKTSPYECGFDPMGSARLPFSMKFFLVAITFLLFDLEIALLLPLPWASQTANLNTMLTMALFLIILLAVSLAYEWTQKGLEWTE
Sequence of isolated bovine heart complex I (P03887 whole entry): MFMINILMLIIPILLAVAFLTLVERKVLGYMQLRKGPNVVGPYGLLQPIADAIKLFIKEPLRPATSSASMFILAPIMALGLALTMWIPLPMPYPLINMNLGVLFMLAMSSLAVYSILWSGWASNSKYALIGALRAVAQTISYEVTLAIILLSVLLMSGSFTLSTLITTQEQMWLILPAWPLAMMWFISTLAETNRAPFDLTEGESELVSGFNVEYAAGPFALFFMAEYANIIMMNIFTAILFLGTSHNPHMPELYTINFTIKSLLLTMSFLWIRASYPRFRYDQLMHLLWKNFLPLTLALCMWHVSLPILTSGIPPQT
Sequence of bovine heart mitochondrial membranes (complex I) (P42026 38-216): as the sequence (P42026 38-216) above
Sequence of bovine heart mitochondrial membranes (complex I) (P17694 34-463): as the sequence (P17694 34-463) above
Sequence of bovine heart mitochondrial membranes (complex I) (P03887 whole entry): as the sequence (P03887 whole entry) above
Sequence of bovine heart mitochondrial membranes (complex I) (P03898 whole entry): as the sequence (P03898 whole entry) above
Sequence of mouse heart mitochondrial membranes (complex I) (P03899 whole entry): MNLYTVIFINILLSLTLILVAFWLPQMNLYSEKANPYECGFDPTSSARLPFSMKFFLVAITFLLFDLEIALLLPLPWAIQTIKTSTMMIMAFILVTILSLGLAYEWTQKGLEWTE
Sequence of mouse heart mitochondrial membranes (complex I) (P03888 whole entry): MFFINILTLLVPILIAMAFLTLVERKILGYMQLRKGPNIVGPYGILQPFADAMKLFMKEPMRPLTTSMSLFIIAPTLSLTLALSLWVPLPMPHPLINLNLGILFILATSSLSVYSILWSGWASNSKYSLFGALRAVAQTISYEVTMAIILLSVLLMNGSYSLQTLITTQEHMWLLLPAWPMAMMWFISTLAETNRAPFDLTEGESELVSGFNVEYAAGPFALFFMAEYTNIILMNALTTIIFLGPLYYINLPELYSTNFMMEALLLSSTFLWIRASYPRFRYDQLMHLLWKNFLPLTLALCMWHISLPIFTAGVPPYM
Sequence of mouse heart mitochondrial membranes (complex I) (Q9DC70 36-224): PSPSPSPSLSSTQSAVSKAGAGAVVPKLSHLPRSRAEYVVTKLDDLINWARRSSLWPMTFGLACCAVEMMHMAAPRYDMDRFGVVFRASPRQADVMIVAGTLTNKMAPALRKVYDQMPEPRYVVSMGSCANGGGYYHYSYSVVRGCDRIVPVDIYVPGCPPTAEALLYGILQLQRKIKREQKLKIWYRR
Sequence of mouse heart mitochondrial membranes (complex I) (Q91WD5 34-463): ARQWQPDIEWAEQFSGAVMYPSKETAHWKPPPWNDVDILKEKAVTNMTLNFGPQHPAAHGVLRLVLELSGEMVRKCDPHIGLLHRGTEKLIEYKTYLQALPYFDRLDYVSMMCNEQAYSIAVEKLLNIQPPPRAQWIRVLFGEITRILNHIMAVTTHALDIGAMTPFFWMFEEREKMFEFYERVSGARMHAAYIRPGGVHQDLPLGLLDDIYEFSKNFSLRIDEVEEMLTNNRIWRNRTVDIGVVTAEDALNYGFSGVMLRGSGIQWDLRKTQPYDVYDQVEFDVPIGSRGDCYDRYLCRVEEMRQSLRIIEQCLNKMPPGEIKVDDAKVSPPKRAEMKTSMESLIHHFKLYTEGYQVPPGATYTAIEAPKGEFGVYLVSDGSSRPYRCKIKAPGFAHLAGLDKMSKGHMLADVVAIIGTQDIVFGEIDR

Q: What does the source list for `N#CC(C#N)=NNc1ccc(OC(F)(F)F)cc1` [FCCP, carbonyl cyanide-4-(trifluoromethoxy)phenylhydrazone]?
A: TMRM fluorescence, % of the control value ([1]; after 6.5 h, phenformin at IC50/10 (34 μM), FCCP at 1 μM, n = 3): 13.43 ± 1.7%; mean-y (TMRM) ([1]; individual replicates, phenformin 6.5 hours): 1862.7 and 2673.4 and 1873.5; TMRM average ([1]; n 3, phenformin 6.5 hours): 2136.53; TMRM average, % control ([1]; n 3, phenformin 6.5 hours): 13.43 % control

Q: `N=C(N)N=C(N)Nc1ccccc1` [compound2] was tested. Which remaining activity at 25 µM ([2]; inhibitor 0.025 mM) did it give?
A: 100%

Q: And the remaining activity at 50 µM ([2]; inhibitor 0.05 mM)?
A: 91.6%

Q: What about the remaining activity at 130 µM ([2]; inhibitor 0.13 mM) of the same molecule?
A: 95.5%

Q: And the remaining activity at 250 µM ([2]; inhibitor 0.25 mM)?
A: 81.9%

Q: What about the remaining activity at 500 µM ([2]; inhibitor 0.50 mM) of the same molecule?
A: 59.6%

Q: And the remaining activity at 1250 µM ([2]; inhibitor 1.25 mM)?
A: 40.4%

Q: What about the remaining activity at 2500 µM ([2]; inhibitor 2.50 mM) of the same molecule?
A: 27%

Q: And the remaining activity at 50 µM ([3]; inhibitor 0.05 mM)?
A: 89%

Q: And the remaining activity at 100 µM ([3]; inhibitor 0.10 mM)?
A: 82.1%

Q: And the remaining activity at 200 µM ([3]; inhibitor 0.20 mM)?
A: 70%

Q: And the remaining activity at 400 µM ([3]; inhibitor 0.40 mM)?
A: 50.6%

Q: What about the remaining activity at 1000 µM ([3]; inhibitor 1.00 mM) of the same molecule?
A: 33.6%

Q: What about the remaining activity at 2000 µM ([3]; inhibitor 2.00 mM) of the same molecule?
A: 17.4%

Q: And the remaining activity at 2500 µM ([3]; inhibitor 2.50 mM)?
A: 15.2%

Q: What about the remaining activity at 25 µM ([4]; inhibitor 0.025 mM) of the same molecule?
A: 91.2%

Q: And the remaining activity at 50 µM ([4]; inhibitor 0.05 mM)?
A: 80.9%

Q: What about the remaining activity at 120 µM ([4]; inhibitor 0.12 mM) of the same molecule?
A: 74.7%

Q: What about the remaining activity at 250 µM ([4]; inhibitor 0.25 mM) of the same molecule?
A: 59.3%

Q: And the remaining activity at 500 µM ([4]; inhibitor 0.50 mM)?
A: 43.6%

Q: What about the remaining activity at 1250 µM ([4]; inhibitor 1.25 mM) of the same molecule?
A: 32%

Q: And the remaining activity at 2500 µM ([4]; inhibitor 2.50 mM)?
A: 21.2%
